In PubChem BioAssay (NCI):
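Protocol summary: plate cells (96-well), add compound at 5 concentrations, incubate 48 h, interpolate endpoints linearly. Here, GI50 denotes the concentration required for 50% inhibition of growth. TGI: concentration producing complete growth inhibition.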

Key:
Experiment in all cases: NCI tumour cell line growth inhibition, 48 h
[1] = test system: HCC-2998 colon
[2] = test system: RXF 393 renal
[3] = test system: SR leukemia
[4] = test system: HCT-15 colon
[5] = test system: EKVX NSCLC
[6] = test system: MDA-MB-231 breast
[7] = test system: NCI-H226 lung
[8] = test system: UACC-257 melanoma
[9] = test system: SK-MEL-5 melanoma
[10] = test system: SNB-19 CNS
[11] = test system: HL-60(TB) leukemia
[12] = test system: SF-268 CNS
[13] = test system: OVCAR-4 ovarian
[14] = test system: SF-295 CNS
[15] = test system: 786-0 renal
[16] = test system: HOP-62 NSCLC
[17] = test system: BT-549 breast
[18] = test system: SK-MEL-28 melanoma
[19] = test system: SN12C renal
[20] = test system: OVCAR-8 ovarian
[21] = test system: SNB-75 CNS
[22] = test system: SK-OV-3 ovarian
[23] = test system: UO-31 renal
[24] = test system: MCF7 breast
[25] = test system: PC-3 prostate
[26] = test system: MDA-MB-468 breast
[27] = test system: NCI-H23 lung
[28] = test system: OVCAR-3 ovarian
[29] = test system: MDA-MB-435
[30] = test system: IGROV1 ovarian
[31] = test system: NCI-H460 lung
[32] = test system: KM12 colon
[33] = test system: M14 melanoma
[34] = test system: DU-145 prostate
[35] = test system: COLO 205 colon
[36] = test system: SK-MEL-2 melanoma
[37] = test system: HOP-92 NSCLC
[38] = test system: RPMI-8226 leukemia
[39] = test system: U251 CNS
[40] = test system: ACHN renal
[41] = test system: MOLT-4 leukemia
[42] = test system: T-47D breast
[43] = test system: UACC-62 melanoma
[44] = test system: OVCAR-5 ovarian
[45] = test system: HT29 colon
[46] = test system: HCT-116 colon
[47] = test system: HS 578T breast
[48] = test system: A549 NSCLC
[49] = test system: NCI-H522 lung
[50] = test system: SW-620 colon
[51] = test system: K-562 leukemia
[52] = test system: A498 renal
[53] = test system: CAKI-1 renal
[54] = test system: LOX IMVI melanoma
[55] = test system: NCI/ADR-RES ovarian
[56] = test system: SF-539 CNS
[57] = test system: TK-10 renal
[58] = test system: CCRF-CEM leukemia
[59] = test system: MALME-3M melanoma

O=C(CSc1nc2ccccc2c(=O)n1-c1ccc(Cl)cc1)Nc1ccc(-c2nc3ccccc3[nH]2)cc1
GI50 [1]: 3.12 µM | TGI [1]: 11.6 µM | GI50 [2]: 2090 nM | TGI [2]: 5.31 µM | GI50 [3]: 1420 nM | TGI [3]: 7.77 µM | GI50 [4]: 1570 nM | TGI [4]: 3.77 µM | GI50 [5]: 3.95 µM | TGI [5]: 14.8 µM | GI50 [6]: 1910 nM | TGI [6]: 3.86 µM | GI50 [7]: 9 µM | TGI [7]: 22.5 µM | GI50 [8]: 1940 nM | TGI [8]: 4.55 µM | GI50 [9]: 3.62 µM | TGI [9]: 12.8 µM | GI50 [10]: 2220 nM | TGI [10]: 5.28 µM | GI50 [11]: 6.92 µM | TGI [11]: 21.7 µM | GI50 [12]: 3.67 µM | TGI [12]: 15.7 µM | GI50 [13]: 1880 nM | TGI [13]: 3.94 µM | GI50 [14]: 3.3 µM | TGI [14]: 11.8 µM | GI50 [15]: 1880 nM | TGI [15]: 3.69 µM | GI50 [16]: 2000 nM | TGI [16]: 4.11 µM | GI50 [17]: 5.33 µM | TGI [17]: 17.5 µM | GI50 [18]: 1820 nM | TGI [18]: 3.43 µM | GI50 [19]: 1730 nM | TGI [19]: 3.3 µM | GI50 [20]: 1830 nM | TGI [20]: 3.66 µM | GI50 [21]: 1710 nM | TGI [21]: 6.04 µM | GI50 [22]: 10.2 µM | TGI [22]: 21.9 µM | GI50 [23]: 2030 nM | TGI [23]: 5.4 µM | GI50 [24]: 1310 nM | TGI [24]: 2850 nM | GI50 [25]: 3.01 µM | TGI [25]: 10.9 µM | GI50 [26]: 1900 nM | TGI [26]: 4.7 µM | GI50 [27]: 2240 nM | TGI [27]: 5.89 µM | GI50 [28]: 2050 nM | TGI [28]: 4.3 µM | GI50 [29]: 2050 nM | TGI [29]: 4.53 µM | GI50 [30]: 3.04 µM | TGI [30]: 12.5 µM | GI50 [31]: 1770 nM | TGI [31]: 3.38 µM | GI50 [32]: 10.9 µM | TGI [32]: 40 µM | GI50 [33]: 2480 nM | TGI [33]: 7.06 µM | GI50 [34]: 2120 nM | TGI [34]: 4.76 µM | GI50 [35]: 2520 nM | TGI [35]: 8.14 µM | GI50 [36]: 3.06 µM | TGI [36]: 11.9 µM | GI50 [37]: 1660 nM | TGI [37]: 5.33 µM | GI50 [38]: 2780 nM | TGI [38]: 10.1 µM | GI50 [39]: 1840 nM | TGI [39]: 3.23 µM | GI50 [40]: 3.28 µM | TGI [40]: 10.7 µM | GI50 [41]: 3.47 µM | TGI [41]: 18.1 µM | GI50 [42]: 1780 nM | TGI [42]: 3.56 µM | GI50 [43]: 1990 nM | TGI [43]: 4.59 µM | GI50 [44]: 3.12 µM | TGI [44]: 13.7 µM | GI50 [45]: 2100 nM | TGI [45]: 4.46 µM | GI50 [46]: 1910 nM | TGI [46]: 3.65 µM | GI50 [47]: 2120 nM | TGI [47]: 4.82 µM | GI50 [48]: 1570 nM | TGI [48]: 3.01 µM | GI50 [49]: 1950 nM | TGI [49]: 4.54 µM | GI50 [50]: 1840 nM | TGI [50]: 3.63 µM | GI50 [51]: 3.02 µM | TGI [51]: 11.5 µM | GI50 [52]: 15.9 µM | TGI [52]: 29.3 µM | GI50 [53]: 4.51 µM | TGI [53]: 15.6 µM | GI50 [54]: 1550 nM | TGI [54]: 2890 nM | GI50 [55]: 2490 nM | TGI [55]: 7.35 µM | GI50 [56]: 2110 nM | TGI [56]: 4.89 µM | GI50 [57]: 1850 nM | TGI [57]: 3.64 µM | GI50 [58]: 4.39 µM | TGI [58]: 19.5 µM | GI50 [59]: 1960 nM | TGI [59]: 4.47 µM
